Test results as given in patent publication US11360077B2, “Death receptors as markers for rhTRAIL-sensitivity” (Cleveland State University, priority 2017, dated 2022).
Residues, ends and D or L forms follow the SMILES beside them. *: point of attachment. Cbz = O=C(OCc1ccccc1)*; CH2F = FC*

Experiments:
Assay type in all cases: cell-based, human
FLIP [1] = experiment: Total FLIP protein (western blot)
Method: (§1) Western Blot Analysis. Total cell lysates were prepared using RIPA lysis buffer (Sigma) containing 150 mM sodium chloride, 1.0% Triton X-100, 0.5% sodium deoxycholate, 0.1% sodium dodecyl sulfate (SDS) and 50 mM Tris, pH 8.0 plus a 1× cocktail of protease inhibitors (Protease Inhibitor Cocktail Set I, Calbiochem). Cells were lysed for 30 minutes at 4° C. followed by centrifugation for 10 minutes at 10,000 rpm at 4° C. Protein concentrations were determined using BCA protein assay (Pierce). A 35 μg protein aliquot was mixed with 4× Laemmli's SDS sample buffer (0.02% Bromophenol Blue (BPB), 8% Beta-mercaptoethanol (BME), 8% SDS, 40% glycerol and 250 mM Tris-HCl, pH 6.8). Cell lysates were heated for five minutes at 100° C., resolved by 12% SDS-polyacrylamide gel electrophoresis (SDS-PAGE) and transferred to polyvinylidene fluoride (PVDF) membrane. The membrane was blocked with 5% non-fat milk or 5% BSA for ≥1 hour and incubated with primary antibodies for PARP and caspase 8 (Cell Signaling). After incubation, the membrane was incubated with secondary anti-rabbit or mouse horseradish peroxidase (HRP)-conjugated antibodies (Biorad). Proteins were visualized through development by enhanced chemiluminescence (ECL 2 Western Blotting Substrate, Pierce) and exposure on X-ray film. The blots were reprobed for β-actin to confirm equal protein loading.
(§2) Western Blot Analysis. Total cell lysates were analyzed for levels of PARP, caspase 8, caspase 3, Bid, caspase 9, caspase 6, caspase 7, FLIP, DR4 and DR5 and the cytosolic cellular fraction was analyzed for cytochrome C (Cell Signaling) using previously described western blotting techniques.

DR4 [2] = experiment: Death receptor membrane expression (anti-DR4-PE staining, FACS)
Method: (§3) Death Receptor Membrane Expression. Untreated and rhTRAIL-treated cells were collected with enzyme-free phosphate-buffered saline (PBS)-based cell dissociation buffer (Gibco Life Technologies) and stained with mouse anti-human DR4 or DR5 conjugated to phycoerythrin (PE) (eBioscience). Briefly, 0.25×10^6 cells were incubated in 100 μl of staining buffer (2% FBS and 0.02% sodium azide in PBS) and 5 μl anti-DR4 or anti-DR5 for one hour on ice in the dark. As a negative control to account for non-specific antibody binding, all four melanoma lines were stained with mouse IgG1κ, the same antibody isotype as DR4 and DR5, under the same conditions. After incubation, cells were washed twice with staining buffer and resuspended in 500 μl of staining buffer and analyzed on BD FACS Canto II using Diva software (BD Bioscience, San Jose, Calif.). Death Receptor Membrane Expression. The cell surface expression of DR4 and DR5 were determined according to previously described methods. For the permeabilization experiments, after the first antibody incubation cells were fixed in 4% paraformaldehyde for 10 minutes at room temperature and permeabilized with 0.1% saponin for 5 minutes at room temperature. Cells were then incubated with anti-IgG1κ, DR4 or DR5 for 30 minutes in the saponin buffer and analyzed by FACS. To calculate the cytoplasmic DR expression, […].

WM164 [3] = experiment: Western blot of apoptotic cascade (PARP, caspases, Bid, cytochrome c); settings: WM164, quercetin alone at 25 and 50 μM
Method: (§4) Western Blot Analysis. Total cell lysates were prepared using RIPA lysis buffer (Sigma) containing 150 mM sodium chloride, 1.0% Triton X-100, 0.5% sodium deoxycholate, 0.1% sodium dodecyl sulfate (SDS) and 50 mM Tris, pH 8.0 plus a 1× cocktail of protease inhibitors (Protease Inhibitor Cocktail Set I, Calbiochem). Cells were lysed for 30 minutes at 4° C. followed by centrifugation for 10 minutes at 10,000 rpm at 4° C. Protein concentrations were determined using BCA protein assay (Pierce). A 35 μg protein aliquot was mixed with 4× Laemmli's SDS sample buffer (0.02% Bromophenol Blue (BPB), 8% Beta-mercaptoethanol (BME), 8% SDS, 40% glycerol and 250 mM Tris-HCl, pH 6.8). […]
(§5) Melanoma rhTRAIL-Sensitivity: To test rhTRAIL-sensitivity, malignant melanoma lines were treated with and without 100 ng/ml of rhTRAIL for 72 hours. […] Post-treatment cells were analyzed for induction of apoptosis through FITC-Annexin-V and PI staining followed by FACS analysis (FIGS. 2A & 2B).
(§6) Western Blot Analysis. Total cell lysates were analyzed for levels of PARP, caspase 8, caspase 3, Bid, caspase 9, caspase 6, caspase 7, FLIP, DR4 and DR5 and the cytosolic cellular fraction was analyzed for cytochrome C (Cell Signaling) using previously described western blotting techniques. […]

MeWo [4] = experiment: as above; settings: quercetin alone at 25 and 50 μM
Method: as §4, §5, §6

DR5 [5] = experiment: Total DR5 protein (western blot)
Method: as §1, with “After incubation, the membrane was incubated with secondary anti-rabbit or mouse horseradish peroxidase (HRP)-conjugated antibodies (Biorad). Proteins were visualized through development by enhanced chemiluminescence (ECL 2 Western Blotting Substrate, Pierce) and exposure on X-ray film. The blots were reprobed for β-actin to confirm equal protein loading.” left out
as §2

DR4 [6] = experiment: DR4 mRNA (reverse transcription-PCR)
Method: (§7) Reverse Transcription-PCR. Total RNA was extracted using TRIzol reagent (Ambion) and treated with DNase according to manufacturer's protocol (Invitrogen Deoxyribonuclease I, Amplification Grade). RT-PCR was performed following the manufacturer's protocol (Invitrogen SuperScript III One-Step RT-PCR System with Platinum® Taq DNA Polymerase). Human DR5 mRNA was amplified using the forward primer 5′-[…]-3′ and the reverse primer 5′-[…]-3′. For DR4, forward primer 5′-GAGCAACGCAGACTCGCT-3′ and the reverse primer 5′-TCACTCCAAGGACACGGC-3′ were used. For FLIP, forward primer 5′-[…]-3′ and the reverse primer 5′-[…]-3′ were used. For β-actin, the forward primer 5′-[…]-3′ and the reverse primer 5′-[…]-3′ were used. cDNA synthesis was performed at 60° C. for 30 minutes using the Applied Biosystems GeneAmp PCR System 9700. The PCR cycling conditions (30 cycles) were as follows: denature for 2 minutes at 94° C., anneal for 30 seconds at 55° C. for FLIP and DR4 and 65° C. for DR5 and β-actin, extend for 1 minute and 30 seconds at 68° C., and execute a final extension for 10 minutes at 68° C. Reaction products were analyzed on 1.2% agarose gels. The bands were visualized by ethidium bromide and an UV.

DR4 [7] = experiment: Cytoplasmic DR4 expression (permeabilization, FACS)
Method: Death Receptor Membrane Expression. The cell surface expression of DR4 and DR5 were determined according to previously described methods. For the permeabilization experiments, after the first antibody incubation cells were fixed in 4% paraformaldehyde for 10 minutes at room temperature and permeabilized with 0.1% saponin for 5 minutes at room temperature. Cells were then incubated with anti-IgG1κ, DR4 or DR5 for 30 minutes in the saponin buffer and analyzed by FACS. To calculate the cytoplasmic DR expression, […].

DR5 [8] = experiment: DR5 mRNA (reverse transcription-PCR)
Method: as §7

DR4 [9] = experiment: Total DR4 protein (western blot)
Method: as §1, with “After incubation, the membrane was incubated with secondary anti-rabbit or mouse horseradish peroxidase (HRP)-conjugated antibodies (Biorad). Proteins were visualized through development by enhanced chemiluminescence (ECL 2 Western Blotting Substrate, Pierce) and exposure on X-ray film. The blots were reprobed for β-actin to confirm equal protein loading.” left out
as §2

FLIP [10] = experiment: FLIP mRNA (reverse transcription-PCR)
Method: as §7

WM164 [11] = experiment: Apoptosis assay (FITC-Annexin-V and PI staining, FACS)
Method: (§8) Cell Culture. Cells were incubated in a 90% humidified atmosphere with 5% CO2 at 37° C. Human adult primary epidermal melanocytes (ATCC PCS-200-013) were maintained in Dermal Cell Basal Medium supplemented with an Adult Melanocyte Growth kit (ATCC PCS-200-042) and 1% Antibiotic/Antimycotic Solution. The malignant melanoma cell lines, A375 (ATCC CRL-1619), WM9 and WM164 were maintained in DMEM and MeWo (ATCC HTB-65) was maintained in RPMI, both supplemented with 10% Fetal Bovine Serum (FBS) and 1% Antibiotic/Antimycotic Solution. WM9 and WM164 were a kind gift from Dr. Daniel J. Lindner from the Cleveland Clinic Foundation, Cleveland, Ohio Malignant melanoma lines are derived from patient tumors. A375 was derived from an epithelial skin biopsy. MeWo, WM9 and WM164 are metastatic malignant melanomas isolated from the lymph nodes.
(§9) Apoptosis Assay. Cells were trypsinized, harvested, washed twice with cold PBS and resuspended in 100 μl of Annexin-V binding buffer at a concentration of 1×10^3 cells/μl. According to manufacturer's protocol, cells were incubated with 5 μl of FITC-Annexin-V and propidium iodide (PI) for 15 minutes at room temperature in the dark (FITC-Annexin-V Kit Apoptosis Detection Kit I, BD Pharminogen). Stained cells were analyzed on BD FACS Canto II using Diva software. Single color controls (Annexin-V or PI only) were used to set up compensation and quadrants for FACS.
(§10) Melanoma rhTRAIL-Sensitivity: To test rhTRAIL-sensitivity, malignant melanoma lines were treated with and without 100 ng/ml of rhTRAIL for 72 hours. Prior to treatment, control experiments were done to determine the optimal conditions for rhTRAIL-treatment (data not shown). The treatment of 100 ng/ml for 72 hours was selected to best distinguish between rhTRAIL-sensitive and rhTRAIL-resistant melanomas. Post-treatment cells were analyzed for induction of apoptosis through FITC-Annexin-V and PI staining followed by FACS analysis (FIGS. 2A & 2B). […]

MeWo [12] = experiment: as above; settings: quercetin alone at 25 and 50 μM
Method: as §8, §9, §10

DR5 [13] = experiment: Death receptor membrane expression (anti-DR5-PE staining, FACS)
Method: as §3

[14] = system: rhTRAIL-resistant malignant melanomas; experiment: Western blot of co-treatment with general caspase inhibitor Z-VAD-FMK; settings: Z-VAD-FMK added to rhTRAIL plus quercetin
Method: as §4, with “6.8). Cell lysates were heated for five minutes at 100° C., resolved by 12% SDS-polyacrylamide gel electrophoresis (SDS-PAGE) and transferred to polyvinylidene fluoride (PVDF) membrane.” for “6.8).”
as §2
Post treatment cells were collected and analyzed for induction of apoptosis through Annexin-V and PI staining and western blotting probing for key proteins in the apoptotic pathways (FIG. 4). […]

[15] = MeWo, post-treatment with quercetin
[16] = WM164, post-treatment with quercetin

`CC(C)C[C@@H](C=O)NC(=O)[C@H](CC(C)C)NC(=O)[C@H](CC(C)C)NC(=O)OCc1ccccc1` [MG132, reference compound] (Cbz-Leu-Leu-Leu-aldehyde) was tested, and the “effect of proteasome inhibitor on quercetin-mediated FLIP downregulation (total FLIP protein)” value (FLIP [1]; co-treatment with quercetin) was “the downregulation of FLIP was prevented”.

For `O=c1c(O)c(-c2ccc(O)c(O)c2)oc2cc(O)cc(O)c12` [quercetin], the “DR4 membrane expression, fold increase relative to control” value (DR4 [2]; MeWo, quercetin 25 μM) was “over four-fold”, the “DR4 membrane expression, fold increase relative to control” value (DR4 [2]; MeWo, quercetin 50 μM) was “over 11 fold” and the “DR4 membrane expression, fold increase relative to control” value (DR4 [2]; WM164, quercetin 25 μM) was “nearly five-fold”. The “DR4 membrane expression, fold increase relative to control” value (DR4 [2]; WM164, quercetin 50 μM) was “seven-fold”, the “PARP cleavage or protein activation” value (WM164 [3]) was “did not reveal any PARP cleavage or protein activation” and the “PARP cleavage or activation of pro-apoptotic proteins” value (MeWo [4]) was “no PARP cleavage or activation of any pro-apoptotic proteins”. The “protein expression of FLIP” value (FLIP [1]; MeWo, quercetin) was “dose-dependently downregulate”, the “protein expression of FLIP” value (FLIP [1]; WM164, quercetin) was “dose-dependently downregulate” and the “total DR5 protein expression” value (DR5 [5]; [15]) was “no change”. The “total DR5 protein” value (DR5 [5]; [16]) was “dose-dependent upregulation”, the “DR4 mRNA message” value (DR4 [6]; [15]) was “no change” and the “DR4 mRNA message” value (DR4 [6]; [16]) was “no change”. The “cytoplasmic levels of DR4” value (DR4 [7]; MeWo, application of quercetin) was “decreased”, the “cytoplasmic levels of DR4” value (DR4 [7]; WM164, application of quercetin) was “decreased” and the “DR5 mRNA” value (DR5 [8]; [15]) was “no change”. The “DR5 mRNA” value (DR5 [8]; [16]) was “dose-dependent upregulation”, the “total DR4 protein expression” value (DR4 [9]; [15]) was “no change” and the “total DR4 protein expression” value (DR4 [9]; [16]) was “no change”. For the same molecule, the “FLIP mRNA transcript signal” value (FLIP [10]; MeWo, quercetin) was “no change”, the “FLIP mRNA transcript signal” value (FLIP [10]; WM164, quercetin) was “no change” and the apoptotic cells (WM164 [11]; WM164, quercetin alone at 25 μM) was 10.5±0.7%. The apoptotic cells (WM164 [11]; WM164, quercetin alone at 50 μM) was 19.1±1.6%, the “induction of apoptosis compared to control” value (MeWo [12]) was “no significant induction of apoptosis” and the “DR5 membrane expression upregulation” value (DR5 [13]; MeWo, quercetin 25 and 50 μM) was “this did not occur”. For the same molecule, the “DR5 membrane expression, fold increase relative to control” value (DR5 [13]; WM164, quercetin 25 μM) was “quarter-fold increase” and the “DR5 membrane expression, fold increase relative to control” value (DR5 [13]; WM164, quercetin 50 μM) was “half-fold increase”.

In the case of `COC(=O)C[C@H](NC(=O)[C@H](C)NC(=O)[C@@H](NC(=O)OCc1ccccc1)C(C)C)C(=O)CF` [Z-VAD-FMK] (Cbz-Val-Ala-Asp(OMe)-CH2F), the “effect on induction of apoptosis (PARP cleavage, caspase 3 activation) in the co-treatment group” value [14] was “blocked the induction of apoptosis”.
